Results on 8 compounds are retold here after PubChem BioAssay (NCI).

Among the test systems are LOX IMVI melanoma; SN12C renal; OVCAR-3 ovarian; SF-295 CNS; SK-MEL-5 melanoma; SK-MEL-28 melanoma; DU-145 prostate; PC-3 prostate; A498 renal; 786-0 renal.
Holding throughout (assay): NCI-60 cell line screen, 48 h

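Briefly, cells in 96-well plates were exposed to five compound concentrations for 48 h, and endpoints were estimated by linear interpolation. GI50 marks 50% less growth. TGI: concentration producing complete growth inhibition.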

With `COc1ccc(C2=Nc3cc(C)c(C)cc3NC(c3ccccc3)C2)cc1` (centres undefined), the TGI in the assay on LOX IMVI melanoma, in the assay with SN12C renal, in the assay on OVCAR-3 ovarian, in the assay with SF-295 CNS, in the assay on SK-MEL-5 melanoma and in the assay with SK-MEL-28 melanoma was more than 100 µM in each case. Besides, the TGI in the assay with DU-145 prostate, with PC-3 prostate, in the assay with A498 renal and in the assay on 786-0 renal was more than 100 µM throughout.

`COc1ccc2c(c1)NC1=C(C(=O)OC1)C2c1cc(OC)c2c(c1)OCO2` (centres undefined): the GI50 in the assay with LOX IMVI melanoma is less than 0.0189 µM; with SN12C renal, 0.0288 µM; with OVCAR-3 ovarian, less than 0.0149 µM; in the assay with SF-295 CNS it was less than 0.0155 µM; with SK-MEL-5 melanoma it was 0.021 µM; with DU-145 prostate it was 0.0218 µM. The GI50 with PC-3 prostate was 0.028 µM; in the assay with A498 renal, less than 0.0146 µM; with 786-0 renal, 0.032 µM. The TGI with LOX IMVI melanoma was more than 100 µM; with SN12C renal it was more than 100 µM; with OVCAR-3 ovarian, 0.0241 µM; in the assay on SF-295 CNS, more than 100 µM; in the assay on SK-MEL-5 melanoma, 0.0523 µM; in the assay with SK-MEL-28 melanoma, more than 100 µM. Further, the TGI with DU-145 prostate was 0.066 µM; with PC-3 prostate, more than 100 µM; with A498 renal, 0.0437 µM; in the assay with 786-0 renal, more than 100 µM.

Consider `COc1ccc(CCN2CC=Cn3c2nc2ccccc2c3=O)cc1`, for which the GI50 in the assay on LOX IMVI melanoma was 0.0585 µM; in the assay with SN12C renal, 0.116 µM; with OVCAR-3 ovarian, 0.0214 µM; with SF-295 CNS it was 0.0269 µM; with SK-MEL-5 melanoma, 0.0265 µM; in the assay on SK-MEL-28 melanoma it was 0.694 µM. The GI50 with DU-145 prostate was 0.0374 µM; in the assay with PC-3 prostate it was 0.0308 µM; in the assay on A498 renal, 0.0203 µM; in the assay with 786-0 renal it was 0.0445 µM. Besides, the TGI with LOX IMVI melanoma was more than 40.1 µM; in the assay on SN12C renal, more than 61.1 µM; in the assay with OVCAR-3 ovarian, 0.0605 µM; in the assay with SF-295 CNS, more than 100 µM; in the assay on SK-MEL-5 melanoma, 0.154 µM; with SK-MEL-28 melanoma, more than 100 µM. Further, the TGI with DU-145 prostate was more than 23.3 µM; with PC-3 prostate, more than 100 µM; with A498 renal it was 0.0851 µM; in the assay with 786-0 renal, 31.6 µM.

`N#C/C(=C\c1ccsc1)c1nc2ccccc2o1`: the GI50 in the assay on LOX IMVI melanoma is more than 100 µM; with SN12C renal it was more than 100 µM; in the assay on OVCAR-3 ovarian it was 85.1 µM; in the assay on SF-295 CNS, 31.5 µM; with SK-MEL-5 melanoma, 58.8 µM; in the assay on SK-MEL-28 melanoma it was more than 100 µM. In addition, the GI50 is 84.6 µM in the assay on DU-145 prostate, more than 100 µM in the assay on PC-3 prostate, 33.6 µM in the assay on A498 renal and 8.4 µM in the assay with 786-0 renal. The TGI in the assay with LOX IMVI melanoma, with SN12C renal, in the assay with OVCAR-3 ovarian, in the assay with SF-295 CNS, with SK-MEL-5 melanoma and in the assay with SK-MEL-28 melanoma was more than 100 µM each time. Also, the TGI in the assay on DU-145 prostate, in the assay with PC-3 prostate, in the assay with A498 renal and in the assay with 786-0 renal was more than 100 µM throughout.

Take `C=C1C(O)C2C(=C(CC)C13CC3)C(=O)C(C)(C)C2OC` (centres undefined): the GI50 was 43.1 µM in the assay with LOX IMVI melanoma; 74.2 µM with SN12C renal; 40.3 µM in the assay on OVCAR-3 ovarian; more than 100 µM with SF-295 CNS; 42.6 µM in the assay with SK-MEL-5 melanoma; more than 100 µM in the assay with SK-MEL-28 melanoma. Also, the GI50 in the assay on DU-145 prostate is 57.9 µM; in the assay on PC-3 prostate it was 35.2 µM; with A498 renal, more than 100 µM; with 786-0 renal, more than 100 µM. Moreover, the TGI in the assay on LOX IMVI melanoma, with SN12C renal, with OVCAR-3 ovarian, with SF-295 CNS, in the assay with SK-MEL-5 melanoma and in the assay on SK-MEL-28 melanoma was more than 100 µM each time. The TGI in the assay on DU-145 prostate, in the assay with PC-3 prostate, in the assay on A498 renal and with 786-0 renal was more than 100 µM throughout.

As for `COc1cccc(N2C(=O)C3c4[nH]c5ccccc5c4C4CCCC4C3C2=O)c1` (centres undefined), the TGI was more than 10 µM in the assay on LOX IMVI melanoma; 9.02 µM in the assay on SN12C renal; more than 10 µM with OVCAR-3 ovarian; more than 10 µM in the assay with SF-295 CNS; more than 10 µM in the assay on SK-MEL-5 melanoma; more than 10 µM with SK-MEL-28 melanoma. In addition, the TGI with DU-145 prostate is more than 10 µM; in the assay on PC-3 prostate, more than 10 µM; in the assay with A498 renal, 5.1 µM; in the assay with 786-0 renal it was 4.41 µM.

On to `COc1ccc2c(c1)c(CC(=O)[Se]C)c(C)n2C(=O)c1ccc(Cl)cc1`, for which the GI50 with LOX IMVI melanoma is more than 0.203 µM; in the assay on SN12C renal, more than 0.49 µM; with OVCAR-3 ovarian, more than 0.367 µM; with SF-295 CNS it was more than 0.365 µM; in the assay on SK-MEL-5 melanoma, more than 0.434 µM; in the assay with SK-MEL-28 melanoma, more than 0.202 µM. The GI50 with DU-145 prostate was more than 0.423 µM; in the assay with PC-3 prostate, more than 0.337 µM; in the assay on A498 renal, 0.269 µM; in the assay with 786-0 renal it was more than 0.197 µM. Moreover, the TGI in the assay with LOX IMVI melanoma was more than 0.528 µM; in the assay on SN12C renal, more than 1 µM; in the assay with OVCAR-3 ovarian, more than 0.583 µM; with SF-295 CNS it was more than 0.58 µM; with SK-MEL-5 melanoma, more than 0.608 µM; in the assay on SK-MEL-28 melanoma it was more than 0.588 µM. The TGI in the assay with DU-145 prostate was more than 0.807 µM; with PC-3 prostate, more than 0.897 µM; with A498 renal, more than 0.561 µM; in the assay with 786-0 renal, more than 0.428 µM.

For `NCCCC[C@@H]1NC(=O)[C@H]2CCCN2C(=O)[C@H](Cc2ccccc2)CNC(=O)[C@H](Cc2ccccc2)NC1=O`, the GI50 in the assay on LOX IMVI melanoma, in the assay with SN12C renal, in the assay on OVCAR-3 ovarian, with SF-295 CNS, in the assay on SK-MEL-5 melanoma and in the assay with SK-MEL-28 melanoma was more than 37.5 µM throughout. Besides, the GI50 in the assay with DU-145 prostate, in the assay with PC-3 prostate, with A498 renal and in the assay with 786-0 renal was more than 37.5 µM each time. Besides, the TGI in the assay on LOX IMVI melanoma, with SN12C renal, in the assay with OVCAR-3 ovarian, in the assay with SF-295 CNS, with SK-MEL-5 melanoma and in the assay with SK-MEL-28 melanoma was more than 37.5 µM in each case. For the same compound, the TGI in the assay on DU-145 prostate, with PC-3 prostate, with A498 renal and in the assay with 786-0 renal was more than 37.5 µM throughout.
